Patent publication US10174026B2, “Histone demethylase inhibitors” (CELGENE QUANTICEL RESEARCH, INC., priority 2013, dated 2019)

What follows are molecules tested against Jarid1A (Homo sapiens (Human), UniProt P29375) (assay: Jarid1A in vitro enzyme inhibition assay (TR-FRET)). Conditions: not given.
Chain of Jarid1A (P29375 1-1090): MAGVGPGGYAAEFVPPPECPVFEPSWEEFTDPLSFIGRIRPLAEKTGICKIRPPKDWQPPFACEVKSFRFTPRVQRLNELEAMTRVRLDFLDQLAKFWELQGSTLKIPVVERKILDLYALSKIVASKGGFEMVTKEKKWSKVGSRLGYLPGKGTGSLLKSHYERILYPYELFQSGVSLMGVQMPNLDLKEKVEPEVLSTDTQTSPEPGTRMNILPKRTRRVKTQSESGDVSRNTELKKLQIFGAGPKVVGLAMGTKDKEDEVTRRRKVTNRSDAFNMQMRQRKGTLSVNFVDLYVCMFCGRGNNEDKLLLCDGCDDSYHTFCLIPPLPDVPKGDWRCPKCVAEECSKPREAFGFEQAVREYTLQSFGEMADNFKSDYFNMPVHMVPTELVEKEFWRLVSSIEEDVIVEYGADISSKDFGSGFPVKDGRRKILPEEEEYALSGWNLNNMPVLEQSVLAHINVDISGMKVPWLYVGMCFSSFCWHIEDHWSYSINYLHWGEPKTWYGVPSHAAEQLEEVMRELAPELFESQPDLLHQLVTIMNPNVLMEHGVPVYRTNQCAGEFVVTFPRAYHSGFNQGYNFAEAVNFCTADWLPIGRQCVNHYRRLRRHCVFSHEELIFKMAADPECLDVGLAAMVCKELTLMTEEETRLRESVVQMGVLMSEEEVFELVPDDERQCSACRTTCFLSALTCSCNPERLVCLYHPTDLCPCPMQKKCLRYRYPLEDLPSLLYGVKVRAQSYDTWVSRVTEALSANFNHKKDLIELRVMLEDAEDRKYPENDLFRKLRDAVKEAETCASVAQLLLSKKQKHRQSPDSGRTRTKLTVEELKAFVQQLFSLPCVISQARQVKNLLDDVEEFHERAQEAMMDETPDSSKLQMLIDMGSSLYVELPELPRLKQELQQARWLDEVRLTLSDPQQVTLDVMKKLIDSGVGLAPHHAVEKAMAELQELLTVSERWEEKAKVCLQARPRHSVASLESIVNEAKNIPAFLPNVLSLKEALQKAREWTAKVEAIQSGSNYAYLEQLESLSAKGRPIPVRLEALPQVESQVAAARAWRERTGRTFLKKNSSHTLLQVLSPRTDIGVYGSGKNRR
Assay type: biochemical
Protocol: (§1) This assay determines the ability of a test compound to inhibit Jarid1A, Jarid1B, JMJD2C, and JMJD2A demethylase activity.
The enzymatic assay of Jarid1A activity is based upon Time Resolved-Fluorescence Resonance Energy Transfer (TR-FRET) detection.
The assay reaction was initiated by the following: 2 μl of the mixture of 900 nM H3K4me3-biotin labeled peptide and 6 μM alpha-ketoglutaric acid with 2 μl of 11-point serial diluted inhibitor in 3% DMSO was added to each well of plate, followed by the addition of 2 μl of 3 nM Jarid1A to initiate the reaction. The reaction mixture was incubated at room temp for 30 min, and terminated by the addition of 6 μl of 5 mM EDTA in LANCE detection buffer containing 50 nM Phycolink Streptavidin-allophycocyanin and 2 nM Europium-anti-H3K4me1-2 antibody.
In the case of “(±)-methyl 2-(1-hydroxy-2-methylpropyl)-1H-pyrrolo[3,2-b]-pyridine-7-carboxylate [Example 30]”, the IC50 is reported as 100 to 1000 nM.

What follows are molecules tested against Jarid1B (Homo sapiens (Human), UniProt Q9UGL1) (assay: Jarid1B in vitro enzyme inhibition assay (TR-FRET)). Conditions: not given.
Chain of Jarid1B (Q9UGL1 2-751): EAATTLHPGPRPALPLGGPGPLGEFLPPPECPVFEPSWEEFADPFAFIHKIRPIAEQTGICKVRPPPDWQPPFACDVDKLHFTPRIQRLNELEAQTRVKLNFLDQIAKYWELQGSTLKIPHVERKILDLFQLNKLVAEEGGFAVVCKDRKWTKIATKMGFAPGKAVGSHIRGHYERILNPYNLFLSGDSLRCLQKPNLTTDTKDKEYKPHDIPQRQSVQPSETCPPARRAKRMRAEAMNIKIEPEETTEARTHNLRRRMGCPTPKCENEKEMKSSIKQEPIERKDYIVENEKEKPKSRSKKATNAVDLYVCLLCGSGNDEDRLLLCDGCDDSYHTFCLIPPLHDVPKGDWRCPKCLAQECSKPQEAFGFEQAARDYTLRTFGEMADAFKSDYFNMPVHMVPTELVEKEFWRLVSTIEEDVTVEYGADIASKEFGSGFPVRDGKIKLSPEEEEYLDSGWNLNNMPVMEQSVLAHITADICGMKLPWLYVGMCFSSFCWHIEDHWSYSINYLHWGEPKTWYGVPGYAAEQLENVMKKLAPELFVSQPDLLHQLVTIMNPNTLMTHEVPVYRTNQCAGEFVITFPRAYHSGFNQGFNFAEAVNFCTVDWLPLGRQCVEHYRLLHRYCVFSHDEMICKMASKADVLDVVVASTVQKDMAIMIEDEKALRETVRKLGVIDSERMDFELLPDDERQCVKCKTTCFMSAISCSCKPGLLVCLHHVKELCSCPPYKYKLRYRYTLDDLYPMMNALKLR
Assay type: biochemical
Protocol: as §1
The reaction mixture was incubated at room temp for 30 min, and terminated by the addition of 6 μl of 5 mM EDTA in LANCE detection buffer containing 50 nM Phycolink Streptavidin-allophycocyanin and 2 nM Europium-anti-H3K4me1-2 antibody.
Work on “(±)-methyl 2-(1-hydroxy-2-methylpropyl)-1H-pyrrolo[3,2-b]-pyridine-7-carboxylate [Example 30]” yielded an IC50 of under 100 nM.

What follows are molecules tested against JMJD2C (Homo sapiens (Human), UniProt Q9H3R0) (assay: JMJD2C in vitro enzyme inhibition assay (TR-FRET)). Conditions: not given.
Chain of JMJD2C (Q9H3R0 2-372): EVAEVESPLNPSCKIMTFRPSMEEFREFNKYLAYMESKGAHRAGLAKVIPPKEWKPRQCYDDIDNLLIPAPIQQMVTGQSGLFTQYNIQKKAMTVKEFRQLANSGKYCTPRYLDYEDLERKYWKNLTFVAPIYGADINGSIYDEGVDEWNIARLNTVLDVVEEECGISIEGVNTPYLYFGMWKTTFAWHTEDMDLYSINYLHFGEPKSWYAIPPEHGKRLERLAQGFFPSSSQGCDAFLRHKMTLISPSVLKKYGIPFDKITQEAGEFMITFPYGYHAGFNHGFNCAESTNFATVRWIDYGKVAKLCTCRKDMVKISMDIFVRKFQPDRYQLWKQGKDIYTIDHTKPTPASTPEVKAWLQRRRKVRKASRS
Assay type: biochemical
Protocol: as §1
Reaction product was determined quantitatively by TR-FRET after the addition of detection reagent Phycolink Streptavidin-allophycocyanin (Prozyme) and Europium-anti-di-methylated histone H3 lysine 9 (H3K9me2) antibody (PerkinElmer) in the presence of 5 mM EDTA in LANCE detection buffer (PerkinElmer) at a final concentration of 50 nM and 1 nM, respectively.
For “(±)-methyl 2-(1-hydroxy-2-methylpropyl)-1H-pyrrolo[3,2-b]-pyridine-7-carboxylate [Example 30]”, the IC50 was under 100 nM.

These molecules were tested on KYSE-150 cell line (assay: In vitro cell-based assay, KYSE-150 cell line: BrdU cell proliferation ELISA). Conditions: Homo sapiens; KYSE-150 cells, 168 hr, BrdU incorporation.
Protocol: The primary cellular assay for JMJD2C inhibition is an assay which measures cellular proliferation via Bromodeoxyuridine (BrdU) incorporation after 168 hr of compound incubation. This assay is a quantitative ELISA assay measuring DNA incorporation of BrdU during S-phase as a direct readout of cellular proliferation. The KYSE-150 cell line is a JMJD2C gene amplified cell line.
This is a colorimetric immunoassay for the quantification of cell proliferation. Cells treated for 168 hr with test compounds are assayed for their ability to go through S-phase as a measure of their proliferative potential.
The human KYSE-150 (SMAD4 mut, TP53 mut) esophageal carcinoma cell line was seeded at 2,000 cells/well on a 96-well tissue culture treated plate. After an overnight incubation, cells were treated with a test compound in an 11 point dilution series with final concentrations ranging from 100 μM to 2 nM. Cells were then incubated in the presence of compound for 168 hr. After compound incubation, the cells were assayed using a BrdU Cell Proliferation ELISA (Roche). The cells were first incubated with BrdU labeling reagent for 2 hr. After 2 hr, these BrdU incorporated cells were fixed and denatured, probed with an anti-BrdU-Peroxidase antibody for 1.5 hr and washed. Finally, a tetramethylbenzidine peroxidase substrate was added to each well for 15 min followed by H2SO4 stop solution. The plate is read at 450 nm, and the raw optical density data is transferred into XLFit (IDBS) for IC50 calculation using the formula: fit=(D+((Vmax*(x^n))/((x^n)+(Km^n))))
With `COC(=O)c1ccnc2cc(Cc3ccc(Cl)c(Cl)c3)[nH]c12` [Example 129, methyl 2-(3,4-dichlorobenzyl)-1H-pyrrolo[3,2-b]pyridine-7-carboxylate] the IC50 was under 100 nM.
For `COC(=O)c1ccnc2cc(Cc3cc(F)c(Cl)c(Cl)c3)[nH]c12` [Example 131, methyl 2-(3,4-dichloro-5-fluorobenzyl)-1H-pyrrolo-[3,2-b]pyridine-7-carboxylate], the IC50 was under 100 nM.
Molecule `COC(=O)c1ccnc2cc(Cc3ccc(Cl)c(C)c3)[nH]c12` [Example 133, methyl-2-(4-chloro-3-methylbenzyl)-1H-pyrrolo-[3,2-b]pyridine-7-carboxylate] has an IC50 of 100 to 1000 nM.
`COC(=O)c1ccnc2cc(Cc3ccc(Cl)c(C(F)(F)F)c3)[nH]c12` [Example 135, methyl 2-[4-chloro-3-(trifluoromethyl)benzyl]-1H-pyrrolo[3,2-b]pyridine-7-carboxylate] showed an IC50 of under 100 nM.
`COC(=O)c1ccnc2cc(Cc3ccc(F)c(F)c3)[nH]c12` [Example 125, methyl 2-(3,4-difluorobenzyl)-1H-pyrrolo[3,2-b]pyridine-7-carboxylate] gave an IC50 of 1000 to 10000 nM.
In the case of `COC(=O)c1ccnc2cc(Cc3ccc(Cl)c(OC)c3)[nH]c12` [Example 127, methyl 2-(4-chloro-3-methoxybenzyl)-1H-pyrrolo-[3,2-b]-pyridine-7-carboxylate], the IC50 is reported as under 100 nM.
Molecule `CNC(=O)c1ccnc2cc(Cc3ccc(Cl)cc3)[nH]c12` [Example 143, 2-[4-chloro-benzyl]-N-methyl-1H-pyrrolo[3,2-b]pyridine-7-carboxamide] has an IC50 of 100 to 1000 nM.
`CNC(=O)c1ccnc2cc(Cc3ccc(Cl)c(OC(F)(F)F)c3)[nH]c12` [Example 144, 2-[4-chloro-3-(trifluoro-methoxy)benzyl]-N-methyl-1H-pyrrolo-[3,2-b]pyridine-7-carboxamide] showed an IC50 of under 100 nM.
For `COC(=O)c1ccnc2cc(Cc3ccc(Cl)c(OC(F)(F)F)c3)[nH]c12` [Example 141, methyl-2-[4-chloro-3-(trifluoromethoxy)benzyl]-1H-pyrrolo[3,2-b]pyridine-7-carboxylate], the IC50 was under 100 nM.
Molecule `COC(=O)c1ccnc2cc(Cc3ccc(Cl)c(OCC(F)(F)F)c3)[nH]c12` [Example 139, methyl-2-[4-chloro-3-(2,2,2-trifluoroethoxy)benzyl]-1H-pyrrolo[3,2-b]pyridine-7-carboxylate] has an IC50 of under 100 nM.
In the case of `COC(=O)c1ccnc2cc(Cc3ccc(Cl)c(OCC4CC4)c3)[nH]c12` [Example 137, methyl 2-[4-chloro-3-(cyclo-propylmethoxy)benzyl]-1H-pyrrolo[3,2-b]pyridine-7-carboxylate], the IC50 is reported as under 100 nM.
